In series [1] the target is Nonstructural protein 1 (Influenza A virus, UniProt Q194T2). The format is functional, Influenza A virus (A/California/07/2009(H1N1)).
Series [2] has as its target T1, Apoptotic protease-activating factor 1 (Homo sapiens, UniProt O14727).
T1 sequence (O14727 whole entry): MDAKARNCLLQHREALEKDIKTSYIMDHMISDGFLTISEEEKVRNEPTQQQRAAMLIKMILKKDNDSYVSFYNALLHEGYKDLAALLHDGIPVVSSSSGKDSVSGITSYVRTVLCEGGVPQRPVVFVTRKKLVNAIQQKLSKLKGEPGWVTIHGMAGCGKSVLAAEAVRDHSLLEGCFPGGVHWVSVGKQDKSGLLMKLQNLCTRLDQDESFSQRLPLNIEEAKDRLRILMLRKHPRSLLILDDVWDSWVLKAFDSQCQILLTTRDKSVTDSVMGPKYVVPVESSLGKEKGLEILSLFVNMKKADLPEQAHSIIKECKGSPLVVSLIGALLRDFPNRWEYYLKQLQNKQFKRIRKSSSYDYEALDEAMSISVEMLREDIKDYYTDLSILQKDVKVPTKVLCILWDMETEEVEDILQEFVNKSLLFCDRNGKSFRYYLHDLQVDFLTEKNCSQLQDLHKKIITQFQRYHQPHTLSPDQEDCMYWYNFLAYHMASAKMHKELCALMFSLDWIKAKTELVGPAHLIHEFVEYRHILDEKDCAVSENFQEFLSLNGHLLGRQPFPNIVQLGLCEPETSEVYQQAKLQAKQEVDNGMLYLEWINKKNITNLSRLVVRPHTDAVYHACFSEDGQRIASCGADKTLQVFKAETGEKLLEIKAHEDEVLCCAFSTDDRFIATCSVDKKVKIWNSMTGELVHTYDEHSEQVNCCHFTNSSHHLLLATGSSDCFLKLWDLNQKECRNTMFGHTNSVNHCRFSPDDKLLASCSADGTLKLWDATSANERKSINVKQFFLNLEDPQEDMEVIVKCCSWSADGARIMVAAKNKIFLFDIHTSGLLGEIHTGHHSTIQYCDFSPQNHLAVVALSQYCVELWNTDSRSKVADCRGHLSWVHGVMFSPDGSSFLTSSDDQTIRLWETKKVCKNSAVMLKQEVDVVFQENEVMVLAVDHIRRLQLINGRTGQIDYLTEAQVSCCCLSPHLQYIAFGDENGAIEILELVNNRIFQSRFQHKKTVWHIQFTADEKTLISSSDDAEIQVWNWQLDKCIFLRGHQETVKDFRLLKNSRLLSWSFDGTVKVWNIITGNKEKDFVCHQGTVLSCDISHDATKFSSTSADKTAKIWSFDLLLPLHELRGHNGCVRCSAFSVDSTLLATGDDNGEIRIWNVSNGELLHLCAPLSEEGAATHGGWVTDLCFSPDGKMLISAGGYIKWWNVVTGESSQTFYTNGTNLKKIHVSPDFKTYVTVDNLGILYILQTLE
The format is functional.

Series [3] in a line: viability loss in THP-1 monocytes – THP-1 cells, cytotoxicity control for Vif-APOBEC3G degradation inhibitor project, dose response (AID 1117359). The format is functional. The following applies: THP-1.
In series [4] the target is Induced myeloid leukemia cell differentiation protein Mcl-1 (Homo sapiens, UniProt Q07820). The format is functional.
Sequence of Induced myeloid leukemia cell differentiation protein Mcl-1 (Q07820 whole entry, the tested form may be a part): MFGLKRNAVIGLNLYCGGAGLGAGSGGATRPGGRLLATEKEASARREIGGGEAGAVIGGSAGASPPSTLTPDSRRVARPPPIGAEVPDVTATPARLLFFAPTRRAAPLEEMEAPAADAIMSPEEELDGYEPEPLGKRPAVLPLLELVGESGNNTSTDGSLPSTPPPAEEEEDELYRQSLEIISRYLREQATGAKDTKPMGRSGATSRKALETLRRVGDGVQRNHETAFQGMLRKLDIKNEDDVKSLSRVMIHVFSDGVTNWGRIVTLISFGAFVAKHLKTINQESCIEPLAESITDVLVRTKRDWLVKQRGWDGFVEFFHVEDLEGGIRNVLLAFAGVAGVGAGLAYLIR
In series [5] the target is T2, Polyadenylate-binding protein 1 (Homo sapiens, UniProt P11940). The series can be described thus: MLLE domain peptide-binding blockers, IC50 – biochemical, fluorescence polarization, FITC-PAM2 peptide, dose response (AID 602259). The format is functional. The conditions noted are these: read-out: IC50_Mean. For orientation: Fluorescence polarisation rises when a labelled molecule tumbles more slowly, as on binding a larger partner.
T2 sequence (P11940 whole entry, the tested form may be a part): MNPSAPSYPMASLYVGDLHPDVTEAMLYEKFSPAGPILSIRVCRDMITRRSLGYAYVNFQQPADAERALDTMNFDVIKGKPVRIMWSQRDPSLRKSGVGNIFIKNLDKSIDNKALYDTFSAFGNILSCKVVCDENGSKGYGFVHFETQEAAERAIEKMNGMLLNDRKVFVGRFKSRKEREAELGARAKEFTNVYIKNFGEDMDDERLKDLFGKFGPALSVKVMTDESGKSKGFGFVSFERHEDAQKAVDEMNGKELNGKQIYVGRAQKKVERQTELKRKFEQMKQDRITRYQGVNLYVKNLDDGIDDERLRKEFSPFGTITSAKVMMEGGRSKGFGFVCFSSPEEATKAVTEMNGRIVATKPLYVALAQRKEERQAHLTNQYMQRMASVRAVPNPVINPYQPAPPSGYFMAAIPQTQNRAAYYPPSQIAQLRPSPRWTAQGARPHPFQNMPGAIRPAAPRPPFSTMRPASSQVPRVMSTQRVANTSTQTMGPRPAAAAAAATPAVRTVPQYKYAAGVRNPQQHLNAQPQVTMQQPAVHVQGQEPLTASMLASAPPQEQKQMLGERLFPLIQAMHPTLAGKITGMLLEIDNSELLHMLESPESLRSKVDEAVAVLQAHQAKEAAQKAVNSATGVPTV

In series [6] the target is T2, Polyadenylate-binding protein 1. Description: MLLE binding blockers, Cy5 peptide tracer – biochemical, fluorescence polarization, Cy5-PAM2 peptide, secondary, miRNA deadenylation inhibitor project, dose response (AID 602260). The format is functional. The following applies: read-out: IC50_Mean.
Series [7] has as its target T3, DNA repair and recombination protein RAD54-like (Homo sapiens, UniProt Q92698).
T3 sequence (Q92698 whole entry): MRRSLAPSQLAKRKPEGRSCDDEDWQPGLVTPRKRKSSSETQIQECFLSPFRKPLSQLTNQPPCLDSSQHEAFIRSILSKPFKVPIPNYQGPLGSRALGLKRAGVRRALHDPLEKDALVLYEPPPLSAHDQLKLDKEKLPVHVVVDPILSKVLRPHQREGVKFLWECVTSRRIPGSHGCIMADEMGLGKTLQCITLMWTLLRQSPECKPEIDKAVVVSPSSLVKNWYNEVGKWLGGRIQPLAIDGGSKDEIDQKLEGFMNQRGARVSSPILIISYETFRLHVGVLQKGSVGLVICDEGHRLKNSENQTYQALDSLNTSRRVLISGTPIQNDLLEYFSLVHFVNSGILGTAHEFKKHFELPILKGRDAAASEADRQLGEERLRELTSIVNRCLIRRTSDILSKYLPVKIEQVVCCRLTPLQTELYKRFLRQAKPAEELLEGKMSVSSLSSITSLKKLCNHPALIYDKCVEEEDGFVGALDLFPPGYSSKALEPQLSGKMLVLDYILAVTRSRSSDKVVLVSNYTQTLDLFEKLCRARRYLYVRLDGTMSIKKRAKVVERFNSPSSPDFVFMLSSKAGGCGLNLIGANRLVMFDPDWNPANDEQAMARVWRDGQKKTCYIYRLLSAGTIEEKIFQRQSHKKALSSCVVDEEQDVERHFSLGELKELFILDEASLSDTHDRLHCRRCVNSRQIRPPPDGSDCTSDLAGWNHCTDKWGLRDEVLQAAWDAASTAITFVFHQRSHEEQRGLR
The series can be described thus: RAD54 Holliday junction migration blockers – biochemical, fluorescence, cherry-picked samples, dose series, confirmation (AID 651657). The format is functional.

The target of series [8] is T4, DNA repair protein RAD52 homolog (Homo sapiens, UniProt P43351).
T4 sequence (P43351 whole entry): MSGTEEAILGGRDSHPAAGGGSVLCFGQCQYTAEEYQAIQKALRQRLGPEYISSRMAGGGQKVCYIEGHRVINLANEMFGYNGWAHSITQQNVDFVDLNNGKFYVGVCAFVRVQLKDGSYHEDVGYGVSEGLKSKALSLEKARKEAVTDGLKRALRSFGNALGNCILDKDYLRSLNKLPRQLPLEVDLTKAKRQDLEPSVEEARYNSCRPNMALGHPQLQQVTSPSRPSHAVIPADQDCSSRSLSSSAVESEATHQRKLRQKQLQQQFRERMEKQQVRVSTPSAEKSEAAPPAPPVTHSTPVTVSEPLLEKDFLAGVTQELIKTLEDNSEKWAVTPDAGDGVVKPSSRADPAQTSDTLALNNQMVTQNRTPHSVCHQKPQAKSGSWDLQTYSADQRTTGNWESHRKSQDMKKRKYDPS
The format is functional, biochemical.

Series [9] is described as follows: reduction of Shn3 3'UTR-driven luciferase in osteoblasts – cell-based, Clone20 osteoblasts, firefly luciferase, cherry-picked, dose response (AID 624132).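 Also: firefly luciferase luminescence from reporter carrying the Shn3 3'UTR in osteoblasts.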 The format is functional.
Series [10] is described as follows: non-specific 3'UTR reporter inhibition in Clone20-Shn3RL – cell-based, Renilla luciferase, cherry-picked, counter-screen for Shn3 inhibitor project, dose response (AID 624133). The format is functional.
Series [11] in a line: loss of viability in HepG2 cells – cell-based, CellTiter-Glo, cherry-picked, cytotoxicity control for Shn3 inhibitor project, dose response (AID 624134). The format is functional. A general note: ATP-based viability assays read luminescence as a measure of living cells.
A short description of series [12]: Counterscreen for inhibitors of Trypanosoma brucei methionyl tRNA synthetase (MetRS): Luminescence-based cell-based high throughput dose response assay to identify compounds that are cytotoxic to Jurkat human T lymphocyte cells. The format is functional. Background: Counterscreens check selectivity or assay interference.
Series [13] has as its target T5, Methionyl-tRNA synthetase, putative (Trypanosoma brucei brucei, UniProt Q38C91).
T5 sequence (Q38C91 whole entry): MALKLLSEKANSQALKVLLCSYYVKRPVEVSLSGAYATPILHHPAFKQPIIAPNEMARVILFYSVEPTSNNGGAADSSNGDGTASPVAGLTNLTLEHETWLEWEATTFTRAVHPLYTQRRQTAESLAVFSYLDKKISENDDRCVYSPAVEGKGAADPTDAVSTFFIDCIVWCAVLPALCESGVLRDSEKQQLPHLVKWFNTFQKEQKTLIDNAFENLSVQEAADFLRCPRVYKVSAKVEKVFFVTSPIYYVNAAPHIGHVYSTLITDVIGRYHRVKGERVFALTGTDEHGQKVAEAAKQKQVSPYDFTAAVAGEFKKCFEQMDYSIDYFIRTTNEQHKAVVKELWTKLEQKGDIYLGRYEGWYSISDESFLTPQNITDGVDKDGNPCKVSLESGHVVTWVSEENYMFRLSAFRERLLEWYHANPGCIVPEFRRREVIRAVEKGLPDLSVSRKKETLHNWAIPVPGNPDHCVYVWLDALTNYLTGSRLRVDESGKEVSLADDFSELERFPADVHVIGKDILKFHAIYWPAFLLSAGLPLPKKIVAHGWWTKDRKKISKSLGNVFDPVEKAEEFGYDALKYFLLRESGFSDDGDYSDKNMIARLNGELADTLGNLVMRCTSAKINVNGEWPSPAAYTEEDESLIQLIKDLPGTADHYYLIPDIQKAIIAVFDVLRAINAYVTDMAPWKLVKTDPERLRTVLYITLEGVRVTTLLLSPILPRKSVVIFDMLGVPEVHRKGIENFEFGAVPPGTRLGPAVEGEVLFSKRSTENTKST
The format is functional, Trypanosoma brucei brucei strain 927/4 GUTat10.1.

For series [14], the target named is T5, Methionyl-tRNA synthetase, putative. The format is functional, Trypanosoma brucei brucei strain 927/4 GUTat10.1. The source holds these as a separate data set.
Series [15] concerns Streptococcus sp. 'group A'. The series can be described thus: Streptococcus pyogenes SK(-)GAS viability under kanamycin – luminescence, BacTiterGlo, confirmation, counter-screen for streptokinase expression inhibitor project, dose response (AID 1900). The format is functional, organism-based.
For series [16], the target named is T6, Streptokinase A (Streptococcus pyogenes serotype M1, UniProt P10520).
T6 sequence (P10520 whole entry): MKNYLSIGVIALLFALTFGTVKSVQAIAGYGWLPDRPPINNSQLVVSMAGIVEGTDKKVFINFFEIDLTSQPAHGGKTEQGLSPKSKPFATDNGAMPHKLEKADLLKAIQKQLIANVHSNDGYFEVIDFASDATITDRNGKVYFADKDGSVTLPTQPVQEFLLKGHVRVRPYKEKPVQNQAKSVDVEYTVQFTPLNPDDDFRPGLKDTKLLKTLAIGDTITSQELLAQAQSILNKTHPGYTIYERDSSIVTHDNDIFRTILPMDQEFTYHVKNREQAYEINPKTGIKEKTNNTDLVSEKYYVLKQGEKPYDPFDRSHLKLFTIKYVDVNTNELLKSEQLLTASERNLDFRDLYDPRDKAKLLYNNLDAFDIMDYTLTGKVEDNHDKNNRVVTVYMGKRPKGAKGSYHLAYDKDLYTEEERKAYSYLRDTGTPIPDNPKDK
Description: viability-normalized secreted streptokinase activity reduction – plasminogen activation absorbance, OD405, dose response (AID 1914).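 Also: secreted streptokinase activity via plasminogen activation per viability signal from cell pellet.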 The format is functional, Streptococcus pyogenes M1 GAS.

In series [17] the test system is Streptococcus. Description: GAS UMAA2166 growth inhibition – luminescence, BacTiterGlo, counter-screen for streptokinase expression inhibitor project, dose response (AID 1915).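 Also: potency for reduction of bacterial viability or growth.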 The format is functional, organism-based.
The target of series [18] is DNA dC->dU-editing enzyme APOBEC-3G (Homo sapiens, UniProt Q9HC16). The series can be described thus: inhibition of APOBEC3G ssDNA deamination – biochemical, fluorescence, single-stranded DNA substrate, SAR follow-up (AID 602136). The format is functional. The following applies: read-out: IC50_Mean.
Sequence of DNA dC->dU-editing enzyme APOBEC-3G (Q9HC16 whole entry): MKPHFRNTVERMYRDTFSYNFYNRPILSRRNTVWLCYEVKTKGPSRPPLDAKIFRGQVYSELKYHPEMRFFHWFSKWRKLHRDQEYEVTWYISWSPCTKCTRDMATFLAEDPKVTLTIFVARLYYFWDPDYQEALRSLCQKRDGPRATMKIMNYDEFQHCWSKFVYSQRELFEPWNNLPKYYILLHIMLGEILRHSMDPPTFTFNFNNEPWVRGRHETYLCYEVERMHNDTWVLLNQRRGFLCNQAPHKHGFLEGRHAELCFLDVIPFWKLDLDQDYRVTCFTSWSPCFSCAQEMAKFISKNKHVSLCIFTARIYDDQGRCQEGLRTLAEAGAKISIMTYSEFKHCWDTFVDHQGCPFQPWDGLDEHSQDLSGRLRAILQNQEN
Series [19] deals with DNA dC->dU-editing enzyme APOBEC-3A (Homo sapiens, UniProt P31941). The series can be described thus: SAR analysis of small molecule inhibitors of APOBEC3A DNA Deaminase via a fluorescence-based single-stranded DNA deaminase assay. The format is functional. The conditions noted are these: read-out: IC50_Mean.
Sequence of DNA dC->dU-editing enzyme APOBEC-3A (P31941 whole entry): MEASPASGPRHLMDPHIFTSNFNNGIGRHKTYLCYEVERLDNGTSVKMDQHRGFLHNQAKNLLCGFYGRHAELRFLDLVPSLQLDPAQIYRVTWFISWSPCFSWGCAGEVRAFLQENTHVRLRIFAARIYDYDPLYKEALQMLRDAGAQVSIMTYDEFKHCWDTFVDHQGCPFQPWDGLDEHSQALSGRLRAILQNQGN
The target of series [20] is Cytochrome P450 2C9 (Homo sapiens, UniProt P11712).
Sequence of Cytochrome P450 2C9 (P11712 whole entry): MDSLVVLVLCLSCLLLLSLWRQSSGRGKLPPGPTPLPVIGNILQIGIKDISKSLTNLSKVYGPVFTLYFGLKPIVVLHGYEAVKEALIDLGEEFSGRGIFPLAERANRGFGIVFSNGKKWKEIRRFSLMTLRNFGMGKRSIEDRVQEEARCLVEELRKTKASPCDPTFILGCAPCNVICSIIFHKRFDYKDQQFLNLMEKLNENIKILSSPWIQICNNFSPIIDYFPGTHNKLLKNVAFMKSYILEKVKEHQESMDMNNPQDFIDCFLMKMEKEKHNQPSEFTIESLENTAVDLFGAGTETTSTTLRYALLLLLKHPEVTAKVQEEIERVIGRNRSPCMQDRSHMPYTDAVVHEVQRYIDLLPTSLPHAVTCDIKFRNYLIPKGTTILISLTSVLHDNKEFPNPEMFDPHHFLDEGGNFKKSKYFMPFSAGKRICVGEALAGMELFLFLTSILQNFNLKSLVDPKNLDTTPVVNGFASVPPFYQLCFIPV

Activity calls are given as the source filed them. Where only a bound is given, the exact number is not on record here.

Sequence of Nonstructural protein 1 (Q194T2 whole entry): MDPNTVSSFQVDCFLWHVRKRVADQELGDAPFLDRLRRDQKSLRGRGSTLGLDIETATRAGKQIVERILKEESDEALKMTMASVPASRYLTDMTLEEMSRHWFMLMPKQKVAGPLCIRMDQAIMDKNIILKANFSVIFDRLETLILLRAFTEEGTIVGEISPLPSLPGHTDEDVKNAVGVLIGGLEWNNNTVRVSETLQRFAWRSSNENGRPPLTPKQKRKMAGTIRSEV

As for `CCOC(=O)C1CCCN(C2=C(NS(=O)(=O)c3ccc(Br)cc3)C(=O)c3ccccc3C2=O)C1` (configuration not stated), the IC50 is 15.9 µM (active) in series [1] and 19.5 µM (active) in [2].

What is called CC50 is the concentration giving 50% cytotoxicity. As for `COc1ccc2c(c1)c1ccc3c(c1n2C)C(=O)C=CC3=O`, the CC50 in [3] was 18 µM (active). The IC50 in series [4] was 0.946 µM (active); in series [5], 58.5 µM (inactive); in [6], > 66 µM (inactive); in series [2], 19.3 µM (active).

The term AC50 denotes the midpoint of the concentration-response curve, whichever way the signal moves. With `Cc1cccn2c(=O)c3cc(C(=O)NCCN4CCOCC4)c(=N)n(CCN4CCOCC4)c3nc12`, the AC50 is 15.9 µM (active) in series [7] and 13.7 µM (active) in series [8].

As for `O=C(c1ccc(Cl)cc1)C1CCCN(Cc2cccc3ncccc23)C1` (configuration not stated), the AC50 is 4.52 µM (active) in series [9], 7.83 µM (active) in [10] and > 70 µM (inactive) in series [11].

For `COc1ccc(Nc2c3c(nc4ccc(C)cc24)CCC3)cc1`, the AC50 in [7] is 84.4 µM (active).

The EC50 is the concentration that produces a half-maximal response. With `S=C(NCc1cccs1)Nc1cc(Cl)cc(Cl)c1`, the results for the IC50 in series [12], in series [13] and in [14] were 34.5 µM (inactive), 24.6 µM (inactive) and 104 µM (inactive), respectively. The EC50 in series [15] was 5.49 µM (active); in series [16], > 150 µM (not active); in series [17] it was 13.7 µM (active).

As to `COc1cc(CNc2[nH]cnc3c4cc(C)ccc4nc2-3)cc(OC)c1`, the IC50 was 27.8 µM (inactive) in series [12], 2.32 µM (active) in [13] and 1.46 µM (active) in series [14].

Take `C#CCSc1nnc(-c2cc3c(C(F)(F)F)nn(C)c3s2)n1C`: the IC50 in series [18] and in series [19] was > 99 µM (inactive) each time. In series [20], the AC50 entry is “inconclusive”.

For the compound `O=C(c1nn2c(C(F)(F)F)cc(-c3ccc(Cl)cc3)nc2c1Cl)N1CCCC1`, the IC50 in series [18] and in series [19] was > 99 µM (inactive) in each case.

The values are drawn from ChEMBL document CHEMBL1201862, “PubChem BioAssay data set” (2004).
